Measurements taken from US4647672A, “Ascorbate 2-polyphosphate esters and method of making same” (priority 1985, dated 1987).
Read-outs that look alike come from different tables or passages of the source.

Tests used:
monkeys = conditions: Machlin et al; cited from earlier work
guinea pigs [1] = conditions: Machlin 1976; cited from earlier work
fish = fish and possibly crustacea; Halver et al 1975; cited from earlier work
in vitro [2] = assay type: in vitro ADME, potato; conditions: potato, ph 5.0 acetate buffer, pH 5
Description: (§1) It has also been confirmed that behavior of the 2-monophosphate ester of L-ascorbate, ASMP, towards the enzyme phosphatase is different than the behavior of the 2-triphopsphate ester, ASTP.
(§2) ^1 Enzymolysis was done at 25° by stirring 200 micromoles of
(§3) magnesium Lascorbate 2phosphate or ammonium Lascorbate 2triphosphate in
(§4) 100 ml of 0.05 M acetate buffer (pH 5.0) containing about 400 mg of
(§5) bakers' compressed yeast and 2 units of phosphatase (1 unit activity
(§6) hydrolyzes 1 μmole of pnitrophenyl phosphate at pH 4.8 and 37°)
(§7) At a given reaction time, an aliquot (5 ml) was removed, mixed with 5.0 m
(§8) of 12% trichloroacetic acid/4% metaphosphoric acid, and the mixture
(§9) filtered. An aliquot (5 ml) of the filtrate was titrated with
(§10) 2,6dichlorophenolindophenol to a pink endpoint. Blank solutions contained
(§11) all reagents except phosphatase.

[3] = system: Acid Phosphatase from Potato; experiment: in vitro; assay type: in vitro ADME
Description: as §1, §2, §3, §4, §5, §6, §7, §8, §9, §10, §11

[4] = Blank reactions without phosphatase: acid-catalyzed release of L-ascorbate in pH 5.0 acetate buffer; assay type: physicochemical; conditions: 0.05 m acetate buffer, 25°, read-out: L-Ascorbate Released (%), Blank; for degraded at 0.25 h: reaction time 0.25 h; for degraded at 0.5 h: reaction time 0.50 h; for degraded at 1 h: reaction time 1.0 h; for degraded at 2 h: reaction time 2.0 h; for degraded at 3 h: reaction time 3.0 h; for degraded at 4 h: reaction time 4.0 h; for degraded at 8 h: reaction time 8.0 h; for degraded at 20 h: reaction time 20.0 h; for degraded at 5 h: reaction time 5.0 h
in vitro [5] = assay type: in vitro ADME, wheat; conditions: wheat, wheat flour suspension, pH 5
Description: (§12) When stirred with a dilute suspension of wheat flour at 25° C., ASMP was comletely hydrolyzed in 1 hr. whereas ASTP required approximately 10-20 hr. for 95% hydrolysis.
(§13) ^1 Enzymolysis and titration of Lascorbate released were done as
(§14) described in the footnote to Table I, except the phosphatase was that
(§15) present in wheat flour. Two grams of wheat flour was used in the 100 ml
(§16) enzymolysis reaction mixture.

[6] = system: phosphatase present in wheat flour; experiment: in vitro; assay type: in vitro ADME
Description: as §12, §13, §14, §15, §16

physchem = assay type: physicochemical; conditions: for Stability (% Remaining) when reacted with aqueous hydrogen peroxide / remaining at 0.25 h / remaining at 1 h / remaining at 24 h / remaining at 72 h / remaining at 144 h / remaining at 192 h / remaining at 336 h: tris buffer, hydrogen peroxide; for Stability (% Remaining) when reacted with aqueous hydrogen peroxide: pH 7; for remaining at 0.25 h / remaining at 1 h / remaining at 24 h / remaining at 72 h / remaining at 144 h / remaining at 192 h / remaining at 336 h: pH 7, Stability (% Remaining) when reacted with aqueous hydrogen peroxide
Description: When ASTP and ASMP were treated under identical conditions (pH 7, 25° C.) with hydrogen peroxide for 8 days, 77% ASTP remained unreacted while 44% ASMP remained. After 14 days oxidation, 0% ASMP remained compared to 55% ASTP.
^1 Reaction mixture contained 0.05 mL of 30% aqueous hydrogen peroxid
and 200 micromoles of Lascorbate or its 2phosphorylated derivative in 100
ml of 0.05 TRIS buffer (pH 7.0). At a given reaction time, an aliquot (1
ml) of a reaction mixture containing the 2phosphorylated ester was dilute
10 fold with TRIS buffer at pH 7, and the uv absorbance of the mixture
read at 258 nm. To follow loss of Lascorbic acid, an aliquot (1 ml) of th
reaction mixture was diluted with 2% metaphosphoric acid, and the uv
absorbance read at 245 nm.

[7] = Stabilization of L-ascorbate against autoxidation in aqueous medium at pH 7; assay type: physicochemical
guinea pigs [8] = experiment: Guinea pig feeding study of vitamin C activity; assay type: in vivo; conditions: 15.4 mg per kg of body weight per day orally, equivalent to 5.0 mg of L-ascorbic acid
Description: English short-hair guinea pigs were housed individually in a cage and fed Purina guinea pig ration during a one-week acclimation period. The young pigs (190-250 g) were divided into four groups of 10 animals each. One group was fed a diet devoid of vitamin C (Reid-Briggs guinea pig diet, U.S. Biochemicals, Cleveland, Ohio); the second group received the same diet but supplemented with 5.0 mg of L-ascorbic acid per kg of body weight per day; the third group received 15.4 mg of purified tetrasodium L-ascorbate 2-triphosphate dihydrate (L-ascorbate 2-tri-PO4, purified) per kg of body weight per day; and the fourth group received 15.4 mg of tetra-sodium L-ascorbate 2-triphosphate dihydrate (L-ascorbate 2-tri-PO4, reaction mixture) in admixture with the by-products of the reaction mixture as set forth in Example I, except the small amount of unreacted L-ascorbic acid in the reaction mixture was destroyed by O2 -oxidation (the 15.4 mg of tetrasodium L-ascorbate 2-triphosphate dihydrate is equivalent to 5.0 mg of L-ascorbic acid). The vitamin C was administered orally with a calibrated syringe from solutions kept at 5° C., except the L-ascorbic acid solution was prepared fresh daily. The weights of the animals were recorded daily, and the arithmetic means of each group were calculated and compared in the FIGURE.

[9] = pH 5, Table I, all reagents except phosphatase
[10] = pH 5, Table II, blank without phosphatase (wheat flour)

SMILES: O=C1O[C@H]([C@@H](O)CO)C(O)=C1OS(=O)(=O)O [2-sulfate ester]
- vitamin C activity (monkeys): not an active source of vitamin C
- vitamin C activity (guinea pigs [1]): not an active source of vitamin C
- vitamin C activity (fish): it is in fish

SMILES: O=C1O[C@H]([C@@H](O)CO)C(O)=C1OP(=O)(O)O [ASMP, L-Ascorbate 2-phosphate]
- metabolised at 0.25 h (in vitro [2]): 9.3%
- metabolised at 0.5 h (in vitro [2]): 18.6%
- metabolised at 1 h (in vitro [2]): 35.5%
- metabolised at 2 h (in vitro [2]): 60.5%
- metabolised at 3 h (in vitro [2]): 77.3%
- metabolised at 4 h (in vitro [2]): 88.4%
- metabolised at 8 h (in vitro [2]): 100%
- metabolised at 20 h (in vitro [2]): 100%
- rate of release of L-ascorbic acid when treated with purified phosphatase from potato (comparison in words) [3]: much faster than ASTP
- degraded at 0.25 h [4, 9]: 0%
- degraded at 0.5 h [4, 9]: 0%
- degraded at 1 h [4, 9]: 0%
- degraded at 2 h [4, 9]: 2.9%
- degraded at 3 h [4, 9]: 4.6%
- degraded at 4 h [4, 9]: 4.6%
- degraded at 8 h [4, 9]: 8.1%
- degraded at 20 h [4, 9]: ~15%
- degraded at 0.25 h [4, 10]: 0%
- degraded at 0.5 h [4, 10]: 0%
- degraded at 1 h [4, 10]: 0%
- degraded at 2 h [4, 10]: 2.9%
- degraded at 3 h [4, 10]: 4.6%
- degraded at 4 h [4, 10]: 4.6%
- degraded at 5 h [4, 10]: 5.8%
- degraded at 20 h [4, 10]: 14.5%
- metabolised at 0.25 h (in vitro [5]): 47.1%
- metabolised at 0.5 h (in vitro [5]): 76.2%
- metabolised at 1 h (in vitro [5]): 100%
- metabolised at 2 h (in vitro [5]): 100%
- metabolised at 3 h (in vitro [5]): 100%
- metabolised at 4 h (in vitro [5]): 100%
- metabolised at 5 h (in vitro [5]): 100%
- metabolised at 20 h (in vitro [5]): 100%
- time to complete hydrolysis [6]: 1 h
- Stability (% Remaining) when reacted with aqueous hydrogen peroxide (physchem; 192 h): 44.1%
- remaining at 0.25 h (physchem): 98.7%
- remaining at 1 h (physchem): 97.1%
- remaining at 24 h (physchem): 93.9%
- remaining at 72 h (physchem): 77.7%
- remaining at 144 h (physchem): 64.1%
- remaining at 192 h (physchem): 44%
- remaining at 336 h (physchem): 0%

SMILES: O=C1O[C@H]([C@@H](O)CO)C(O)=C1OP(=O)(O)OP(=O)(O)OP(=O)(O)O [ASTP, L-ascorbate 2-triphosphate]
- metabolised at 0.25 h (in vitro [2]): 0%
- metabolised at 0.5 h (in vitro [2]): 0%
- metabolised at 1 h (in vitro [2]): 0%
- metabolised at 2 h (in vitro [2]): 0%
- metabolised at 3 h (in vitro [2]): 0.4%
- metabolised at 4 h (in vitro [2]): 0.8%
- metabolised at 8 h (in vitro [2]): 3.5%
- metabolised at 20 h (in vitro [2]): 8.5%
- degraded at 0.25 h [4, 9]: 0%
- degraded at 0.5 h [4, 9]: 0%
- degraded at 1 h [4, 9]: 0%
- degraded at 2 h [4, 9]: 0%
- degraded at 3 h [4, 9]: 0%
- degraded at 4 h [4, 9]: 0%
- degraded at 8 h [4, 9]: 0%
- degraded at 20 h [4, 9]: 0%
- degraded at 0.25 h [4, 10]: 0%
- degraded at 0.5 h [4, 10]: 0%
- degraded at 1 h [4, 10]: 0%
- degraded at 2 h [4, 10]: 0%
- degraded at 3 h [4, 10]: 0%
- degraded at 4 h [4, 10]: 0%
- degraded at 5 h [4, 10]: 0%
- degraded at 20 h [4, 10]: 0%
- metabolised at 0.25 h (in vitro [5]): 0%
- metabolised at 0.5 h (in vitro [5]): 1.2%
- metabolised at 1 h (in vitro [5]): 3.5%
- metabolised at 2 h (in vitro [5]): 29.6%
- metabolised at 3 h (in vitro [5]): 65.8%
- metabolised at 4 h (in vitro [5]): 86.9%
- metabolised at 5 h (in vitro [5]): 93.1%
- metabolised at 20 h (in vitro [5]): 95%
- time required for 95% hydrolysis [6]: 10 to 20 h
- stability to oxidation compared with ASMP (physchem): more stable to oxidation than ASMP
- Stability (% Remaining) when reacted with aqueous hydrogen peroxide (physchem; 336 h): 55.2%
- remaining at 0.25 h (physchem): 98.6%
- remaining at 1 h (physchem): 98.3%
- remaining at 24 h (physchem): 96.7%
- remaining at 72 h (physchem): 87.6%
- remaining at 144 h (physchem): 83.3%
- remaining at 192 h (physchem): 77%
- remaining at 336 h (physchem): 55%
- stabilization of L-ascorbate against autoxidation by the substance [7]: L-ascorbate is stabilized against autoxidation by ASTP

SMILES: O.O.O=C1O[C@H]([C@@H](O)CO)C([O-])=C1OP(=O)([O-])OP(=O)([O-])OP(=O)([O-])O.[Na+].[Na+].[Na+].[Na+] [L-ascorbate 2-tri-PO4, purified, tetrasodium L-ascorbate 2-triphosphate dihydrate]
- growth rate (mean body weight) compared with group fed equivalent L-ascorbic acid (guinea pigs [8]): grew at a rate equal to that of the group fed an equivalent amount of L-ascorbic acid

SMILES: O=C1O[C@H]([C@@H](O)CO)C(O)=C1O [Parent Compd, L-ascorbic acid]
- time to destruction by hydrogen peroxide (physchem; pH 7, 25° C.): destroyed in less than one hour
- remaining at 0.25 h (physchem): 56.9%
- remaining at 1 h (physchem): 0%
- remaining at 24 h (physchem): 0%
- remaining at 72 h (physchem): 0%
- remaining at 144 h (physchem): 0%
- remaining at 192 h (physchem): 0%
- remaining at 336 h (physchem): 0%
